# Publication PMC12655682, “Screening-Identified Oxazole-4-Carboxamide KB-2777 Exhibits In Vitro Anti-Coronavirus Activity” (Pharmaceutics, 2025)
# Entries after “also recorded” stand apart in the source; their conditions may differ.
# Tests used:
# [1] = Cytotoxicity (EZ-Cytox WST) in LLC-MK2 cells; format: cell-based; settings: rhesus monkey, 72 h exposure
# Method: Cells were seeded at 2 × 10^4 cells per well in 96-well plates and, after overnight attachment, exposed to test compounds for 72 h in maintenance medium. The final DMSO concentration was ≤0.1% (v/v) for all conditions, including vehicle controls. Cell viability was quantified using EZ-Cytox WST reagent (DoGenBio, Seoul, Republic of Korea) according to the manufacturer’s instructions; absorbance was read at 450 nm on a SpectraMax i3x microplate reader (Molecular Devices, San Jose, CA, USA). Viability for each well was normalized to the mean of vehicle-treated (mock) controls on the same plate and expressed as percent viability. Each condition included technical replicates (n = 3) per experiment. Concentration–response data from ≥3 independent experiments were fit to a four-parameter logistic (4PL) model in GraphPad Prism 10.1.2 (GraphPad Software, San Diego, CA, USA) (log10-transformed concentrations; bottom and top unconstrained).
# HCoV-OC43 = assay: Time-of-addition, TCID50 on Vero E6, HCoV-OC43; format: cell-based, Human coronavirus OC43; settings: HCoV-OC43, titrated on Vero E6, 48 h
# Method: HCoV-OC43 (KBPV-VR-8), HCoV-NL63 (KBPV-VR-88), and PEDV DR13 (originally described in [20]) were used. HCoV-NL63 was propagated in LLC-MK2 cells, and HCoV-OC43 and PEDV DR13 were propagated in Vero E6 cells. Virus-containing supernatants were clarified (2000× g, 10 min, 4 °C), aliquoted, and stored at −80 °C. Infectious titers (TCID50/mL) were determined on the corresponding host cell lines by the Spearman–Kärber method with back-titrations included in each experiment.
# For HCoV-OC43, TOA was assessed by CPE reduction in MRC-5 cells and by TCID50 on Vero E6 (no IFA collected).
# Figure S14. Time-of-addition (TOA) analysis of KB-2777 against HCoV-NL63 (48 h). (a) CPE-reduction assay. KB-2777 was applied at 20 µM (blue) or 5 µM (red) under the indicated TOA conditions (Full, Pre, Co, Post, DMSO).
# Cell protection (%) was calculated relative to the DMSO control. […] (b) Infectious progeny released under the same TOA conditions, quantified as log10(TCID₅₀/mL) from culture supernatants (see Methods). […]
# Figure S15. […] Cell protection (%) was calculated relative to the DMSO control. […]
# Statistics: one-way ANOVA with Dunnett’s multiple comparisons vs DMSO; *P<0.05, **P<0.01, ***P<0.001, ****P<0.0001. (b) Infectious progeny released under the same TOA conditions, quantified as log₁₀(TCID₅₀/mL) from culture supernatants by endpoint dilution on Vero E6 indicator cells (Spearman–Kärber method; see Methods). […]
# HCoV-NL63 = assay: Time-of-addition, spike (S) protein immunofluorescence assay, HCoV-NL63/LLC-MK2; format: cell-based, Human coronavirus NL63
# Method: At 48 h post-infection, cells were fixed in 4% paraformaldehyde for 15 min, permeabilized with 0.1% Triton X-100, and blocked with 5% BSA. Samples were incubated with a virus-specific rabbit anti-S protein primary antibody, followed by a goat anti-rabbit IgG H&L (FITC) secondary antibody (Supplementary Table S1) and Hoechst nuclear counterstain. Images were acquired on an epifluorescence microscope. Using Fiji, binary thresholding and particle analysis (or Cell Counter) were applied to count the total number of cells and the number of S-positive cells per field, and the infection rate per well was calculated as (S-positive cells/total cells × 100%). At least eight randomly selected fields per well were analyzed.
# TOA experiments were performed in HCoV-NL63–infected LLC-MK2 cells using four regimens: • Full: compound present from −24 h to 48 h relative to infection. • Pre-treatment: −24 h to −1 h, wash at −1 h, then infection in drug-free medium. • Co-treatment: −1 h to 0 h during adsorption only, wash at 0 h. • Post-treatment: 0 h to 48 h after adsorption.
# Unless otherwise specified, infections were carried out at 100 TCID50 per well with 1 h adsorption at 37 °C, and compounds were used at 20 µM. Primary readout was S protein IFA at 48 h; EZ-Cytox and TCID50 at 48 h for the same regimens are provided in Supplementary Data (Figures S14 and S15).
compound,measurement,setting,value
"COc1cccc(-c2oc(-c3ccc(C(F)(F)F)cc3)nc2C(=O)NCC2CC2)c1 [KB-2777, N-(cyclopropylmethyl)-5-(3-methoxyphenyl)-2-(4-(trifluoromethyl)phenyl)Oxazole-4-Carboxamide]",CC50 at 72 h,[1],> 50 µM
same,TCID50 across TOA regimens,HCoV-OC43,"greatest antiviral effect with full exposure, intermediate activity with pre- and post-treatment, and little or no effect with co-treatment"
same,"inhibition by S protein IFA, post-treatment","HCoV-NL63; HCoV-NL63/LLC-MK2, 20 µM, 0 h to 48 h, readout 48 h",retained measurable activity
same,"inhibition by S protein IFA, co-treatment","HCoV-NL63; HCoV-NL63/LLC-MK2, 20 µM, adsorption only (−1 h to 0 h), readout 48 h, vs virus-only DMSO control",little effect
same,"inhibition by S protein IFA, pre-treatment","HCoV-NL63; HCoV-NL63/LLC-MK2, 20 µM, pre-exposure with washout, readout 48 h",retained measurable activity
same,"inhibition by S protein IFA, full regimen","HCoV-NL63; HCoV-NL63/LLC-MK2, 20 µM, −24 h to 48 h, readout 48 h",greatest inhibition
same,time-of-addition effect-size order of regimens,"HCoV-NL63; full, pre, co, post regimens, across readouts",full > pre ≈ post > co; also recorded: full » pre ≈ post » co
